In patent USRE49742E1, “Drug delivery system for administration of poorly water soluble pharmaceutically active substances” (Vivesto AB, priority 2007, dated 2023):

Experiments:
[1] = cited from earlier work
[2] = Solubility of calcium salt in water (concentration in filtered solution, UV method); assay type: physicochemical; conditions: concentration in solution filtered through 0.2 μm filter
Procedure: Aqueous solutions of a sodium salt of the methyl ester of N-all-trans-retinoyl cysteic acid (5 ml, 15 mg/ml) and calcium chloride (3 ml, 30 mg/ml) were mixed in a 10 ml test tube. During the mixing a fine precipitation emerged. The precipitate was separated by centrifugation of the test tube at 3000 rpm for 10 min. The supernatant was removed and the precipitate was shaken with 8 ml of water followed by a new centrifugation. After three additional washing procedures as described above the supernatant was filtered through a 0.2 μm filter in order to remove possible large aggregates of the product. […] The reaction is illustrated by the below general scheme involving chlorides of any polyvalent metal ions, not only calcium ions.

solubility [2] [µg/mL]	Compound	Bioavailability at oral administration [1]
	C=CC[C@@H]1/C=C(\C)C[C@H](C)C[C@H](OC)[C@H]2O[C@@](O)(C(=O)C(=O)N3CCCC[C@H]3C(=O)O[C@H](/C(C)=C/[C@@H]3CC[C@@H](O)[C@H](OC)C3)[C@H](C)[C@@H](O)CC1=O)[C@H](C)C[C@@H]2OC [tacrolimus]	about 20%
	CO[C@H]1C[C@@H]2CC[C@@H](C)[C@@](O)(O2)C(=O)C(=O)N2CCCC[C@H]2C(=O)O[C@H]([C@H](C)C[C@@H]2CC[C@@H](OCCO)[C@H](OC)C2)CC(=O)[C@H](C)/C=C(\C)[C@@H](O)[C@@H](OC)C(=O)[C@H](C)C[C@H](C)/C=C/C=C/C=C/1C [everolimus]	about 20%
	CO[C@H]1C[C@@H]2CC[C@@H](C)[C@@](O)(O2)C(=O)C(=O)N2CCCC[C@H]2C(=O)O[C@H]([C@H](C)C[C@@H]2CC[C@@H](O)[C@H](OC)C2)CC(=O)[C@H](C)/C=C(\C)[C@@H](O)[C@@H](OC)C(=O)[C@H](C)C[C@H](C)/C=C/C=C/C=C/1C [sirolimus]	about 20%
200	COC(=O)C(CS(=O)(=O)[O-])NC(=O)/C=C(C)/C=C/C=C(C)/C=C/C1=C(C)CCCC1(C)C.COC(=O)C(CS(=O)(=O)[O-])NC(=O)/C=C(C)/C=C/C=C(C)/C=C/C1=C(C)CCCC1(C)C.[Ca+2] (stereo not drawn) [calcium salt of the methyl ester of N-all-trans-retinoyl cysteic acid]	
